Test results as given in patent publication US10676440B2, “Crystalline forms of an NK-1 antagonist” (Helsinn Healthcare SA, priority 2014, dated 2020).
Several values for one entry are separate records, joined by “and”; a condition that tells them apart may be missing. Equal entries are not always repeated.

Legend:
[1] = Moisture adsorption/desorption (DVS), hygroscopicity; format: physicochemical
Method: Moisture Adsorption/Desorption data was collected on a DVS-1 (SMS Surface Measurements Systems) moisture balance system. The sorption/desorption isotherms were measured stepwise in a range of 0% RH to 90% RH at 25° C. A weight change of <0.002 mg/min was chosen as the criterion to switch to the next level of relative humidity (with a maximum equilibration time of 6 hours if the weight criterion was not met). The data were corrected for the initial moisture content of the samples so that the weight after drying the sample at 0% relative humidity was taken as the zero point. The hygroscopicity of a given substance was characterized, in accordance with the European Phamacopoeia (Technical Guide 1999), by the increase in mass when the relative humidity is raised from 0% RH to 90% RH, as defined below (where weight increase=x):
Slightly hygroscopic: 0.2%≤x<2.0%
Very hygroscopic: x≥15.0%
Deliquescent: Sufficient liquid as adsorbed to form a liquid

[2] = in vivo; conditions: for AUC(0-t): AUC (0-100 h)
Method: In Example 10, the pharmacokinetics of the compound of Formula I in dogs following single intravenous and oral administration was evaluated and the oral bioavailability of five different salts of the compound of Formula I was compared. The compound of Formula I was administered to dogs as described in Table 12. The doses are expressed in mg of free base.
The experiments were performed in 15 male dogs (bodyweight 11-18 kg) from RCC Ltd., Biotechnology and Animal Breeding Division, Wolferstrasse 4, CH-4414, Fullinsdorf, Switzerland. The animals were housed under standard laboratory conditions throughout the study period.
For the pharmacokinetic studies, 1 mL blood samples were collected from the cephalic vein of the dogs via catheter at 15, 30 min and at 1, 2, 3, 4, 6, 8, 24, 32, 48, 56, 72, 80, 96, and 100 (or 104) hours following oral dosing. After intravenous administration, blood samples were collected at 5, 15, 30 min and 1, 2, 3, 4, 6, 8, 24, 32, 48, 56, 75, 102, 120, 128, 144, 152, 168, 176, 192, and 200 hours. Collection tubes contained EDTA/NaF as anticoagulant and stabilizer. After centrifugation, plasma was removed and stored deep frozen at approximately −20° C. until analysis using a specific LC-MS method.
Aliquots of 40 μL plasma were mixed with 50 μL buffer at pH 5, 50 μL internal standard of Formula I (1 μg/mL in 1-chlorobutane) and 250 μL butylacetate and then shaken for 10 min. After centrifugation, 200 μL of the supernatant were evaporated to dryness at 45° C. under a stream of nitrogen. The residue was reconstituted with 200 μL acetonitrile/1% formic acid in water (30/70, v/v). Aliquots of 30 μL were injected onto the analytical column (Waters, Symmetry C8, 2.1×150 mm, 5 μm).
Separation occurred by gradient elution using a solvent A (acetonitrile) and solvent B (1% formic acid in water). The flow rate was 0.3 mL/min and the gradient elution was: […]
The sample passed to the ion-spray interface of the single quadrupole mass spectrometer. Selected ion monitoring mode (SIM) was used for mass spectrometric detection. Quantification was based on peak area ratios and calibration curve established between 2 and 5000 ng/mL.
To a 100 μL sample aliquot were added 200 μL of a mixture of acetonitrile/ethanol containing the deuterated internal standard, to precipitate plasma proteins. After vortex mixing and centrifugation, aliquots of the supernatants were transferred to 96-deel-well plates and injected for analysis (5 μL). Following enrichment and cleanup on the trapping column, the analyte was eluted and separated by gradient elution on a 2.1*30 mm analytical column (XTerra MS C18). The effluent from the analytical column was passed to the turbo ion spray vie a divert valve.
Calibration standards were prepared in dog plasma. The calibration range was from 10-5000 ng/mL. In each analytical series, a set of calibration standards was worked up and run with the unknowns. Calibration was then performed by computing a weighted (1/X^2) least-squares linear regression line of the measured peak area ratios (Y) (analyte to internal standard) versus the spiked concentrations (X). The drug concentrations of the unknown samples were then calculated from this regression line (UNICHROM). The performance of the analytical procedure during sample analysis was monitored. With each analytical series, quality control (QC) samples in dog plasma, spiked with known amounts of the analyte, were run together with the study samples.
The pharmacokinetic parameters were estimated by non-compartmental analysis, using the pharmacokinetic evaluation program WinNOnlin [1]. AUC(0-inf.) was calculated applying the linear trapezoidal rule and extrapolation to infinity using the apparent elimination rate constant kz and the calculated concentration at the last measurable time point. AUClast values were calculated by linear trapezoidal rule from time zero to time of last measureable time point.

[3] = in vivo
Method: In Example 11, the pharmacokinetics of the compound of Formula I was evaluated following single intravenous, intraperitoneal, and oral administration to rats to compare the oral bioavailability of two different formulations and to measure the brain penetration after intravenous administration.
A solution of the compound of Formula I (4.7 mg/mL) in water and a suspension of the compound of Formula I (5 mg/mL) in SSV (standard suspension vehicle) were prepared.
The experiments were performed in 20 male rats (Strain RoRo Fuellinsdorf, body weight 230-290 g) from Biological Research Laboratories, Fuellinsdorf, Switzerland. The animals were housed under standard laboratory conditions throughout the study period. After an acclimatization period of 3 days, the rats were implanted with chronic jugular catheters under pentobarbital anesthesia. After surgery the rats were on recovery for 2 days before dosing. They had free access to water and food during the experiment.
For the pharmacokinetic studies, 0.4 mL blood samples were collected at different time points, up to 72 hours post-dose, from the jugular vein of the rats via catheter. For the study of brain and CSF penetration, 2 mL blood samples as well as CSF and brain were collected between 0.3 and 2 hours post-dose from one rat at each time point. Collection tubes contained EDTA/NAF as anticoagulant and stabilizer, respectively. After centrifugation, plasma was removed. Plasma, CSF and brain samples were stored deep-frozen at approximately −20° C. until analysis using a specific LC-MS method.
Aliquots of plasma samples of 40 μL were mixed with 50 μL buffer pH 9, 50 μL of a Formula I internal standard (1 μg/mL 1-chlorobutane) and 250 μL butylacetate and then shaken for 10 min. After centrifugation, 200 μL of the supernatant were evaporated to dryness at 45° C. under a stream of nitrogen. The residue was reconstituted with 200 μL acetonitrile/1% formic acid in water (30/70, v/v). An aliquot of 30 μL was injected onto an analytical column (Waters, Symmetry C8, 2.1×150 mm, 5 μm).
The sample passed to the ion-spray interface of the single quadrupole mass spectrometer. Selected ion monitoring mode (SIM) was used for mass spectrometric detection. Quantification was based on peak area ratios and calibration curve established by weighted (1/x^2) linear regression. The calibration curve was established between 5 and 5000 ng/mL using dog plasma as matrix. Data acquisition and integration of SIM chromatograms were performed using MacQuan (version 1.6) from Perkin-Elmer Sciex.
The pharmacokinetic parameters were estimated by non-compartmental analysis, using the pharmacokinetic evaluation program WinNOnlin [1]. AUC(0-inf) was calculated applying the linear trapezoidal rule and extrapolation to infinity using the apparent elimination rate constant λz and the calculated concentration at the last measurable time point. AUClast values were calculated by linear trapezoidal rule from time zero to time of last measureable time point. Cmax, C(t), and Tmax were determined directly from the plasma concentration-time profiles. The apparent terminal half-life (T1/2) was derived from the equation: T1/2=ln2/λz. Means of the half-life were calculated by harmonic means. Plasma clearance, CL, was calculated as D/AUC(0-inf.). Volume of distribution, Vz, was calculated as CL/λz. The absolute bioavailability was calculated from plasma concentration data as follows: […]
A solution of Formula I (hydrochloride salt) was administered intravenously at a dose of 9.4 mg/kg to 2 male rats in two subsequent experiments. In both studies, blood samples were obtained at 0.083, 0.25, 0.5, 1, 2, 4, 6, 8, and 24 h after intravenous application and in addition at 48 and 72 h in the study.

[4] = male, RoRo Fuellinsdorf, rat, in vivo, po, 10 mg/kg
[5] = dogs, single oral, capsule, 120 mg/dog as free base, Protocol A, individual dogs
[6] = dogs, single oral, capsule, 120 mg/dog as free base, Protocol A, individual dogs, listed as hydrochloride salt
[7] = rats NJ97, NJ98, head prints (water, p.o), title: single oral in SSV, listed as Formula I (HCl salt)
[8] = rats NJ99, NJ100, head prints (water, i.p.), title: single oral in water, 9.3 mg/kg free base, listed as Formula I (HCl salt), 9.3 mg/kg
[9] = rats NJ101, NJ102, water, i.v., 9.3 mg/kg free base, listed as Formula I (HCl salt), 9.3 mg/kg

Cc1ccccc1-c1cc(N2CCN(C)CC2)ncc1N(C)C(=O)C(C)(C)c1cc(C(F)(F)F)cc(C(F)(F)F)c1 [Amorphous Form, 2-(3,5-bis(trifluoromethyl)phenyl)-N,2-dimethyl-N-(6-(4-methylpiperazin-1-yl)-4-(o-tolyl)pyridin-3-yl)propanamide]
crystallization during the sorption isotherm measurement [1]: No crystallization could be observed
Hygroscopicity (weight change 0 to 90%-RH) ([1]; 25° C., 0% RH to 90% RH): 1.5%
Hygroscopicity classification ([1]; 25° C., 0% RH to 90% RH, European Pharmacopoeia classes): slightly hygroscopic
moisture adsorbed ([1]; two cycles): up to 1.5 % w/w

Cc1ccccc1-c1cc(N2CCN(C)CC2)ncc1N(C)C(=O)C(C)(C)c1cc(C(F)(F)F)cc(C(F)(F)F)c1 [Free Base, 2-(3,5-bis(trifluoromethyl)phenyl)-N,2-dimethyl-N-(6-(4-methylpiperazin-1-yl)-4-(o-tolyl)pyridin-3-yl)propanamide]
AUC (0-100 h) ([2]; male, dog, in vivo, po, 70 mg): 12800 ng·h/mL
AUC (0-Inf.) ([2]; male, dog, in vivo, po, 70 mg): 14500 ng·h/mL
Cmax ([2]; male, dog, in vivo, po, 70 mg): 667 ng/mL
T1/2 ([2]; male, dog, in vivo, po, 70 mg): 35.7 h
AUC(0-t) ([2]; male, dog, in vivo, po, 70 mg): 16200 ng·h/mL
AUC(0-inf) ([2]; male, dog, in vivo, po, 70 mg): 19300 ng·h/mL
Cmax ([2]; male, dog, in vivo, po, 70 mg, Cmax): 587 ng/mL
bioavailability ([2]; male, dog, in vivo, po, 70 mg, F (oral bioavailability)): 64%
half-life ([2]; male, dog, in vivo, po, 70 mg, T1/2): 2420 min
Tmax ([2]; male, dog, in vivo, po, 70 mg, Tmax): 4 to 6 h
AUC (0-100 h) ([2]; male, dog, in vivo, po, 120 mg): 17400 ng·h/mL
AUC (0-Inf.) ([2]; male, dog, in vivo, po, 120 mg): 22600 ng·h/mL
Cmax ([2]; male, dog, in vivo, po, 120 mg): 757 ng/mL
T1/2 ([2]; male, dog, in vivo, po, 120 mg): 56.3 h
AUC(0-t) ([2]; male, dog, in vivo, po, 120 mg): 11000 ng·h/mL
AUC(0-inf) ([2]; male, dog, in vivo, po, 120 mg): 12700 ng·h/mL
Cmax ([2]; male, dog, in vivo, po, 120 mg, Cmax): 614 ng/mL
half-life ([2]; male, dog, in vivo, po, 120 mg, T1/2): 2370 min
Tmax ([2]; male, dog, in vivo, po, 120 mg, Tmax): 2 h
half-life ([2]; male, dog, in vivo, po, apparent terminal half-lives): 2160 to 3360 min
bioavailability ([2]; male, dog, in vivo, po, oral (systemic) bioavailability): 34 to 83%
Cmax [3, 4]: 796 ng/mL
Tmax [3, 4]: 4 h
Cmax ([3]; male, RoRo Fuellinsdorf, rat, in vivo, po, 10 mg/kg, Cmax): 616 ng/mL
Tmax ([3]; male, RoRo Fuellinsdorf, rat, in vivo, po, 10 mg/kg, Tmax): 2.2 h

Cc1ccccc1-c1cc(N2CCN(C)CC2)ncc1N(C)C(=O)C(C)(C)c1cc(C(F)(F)F)cc(C(F)(F)F)c1.Cl [Hydrochloride]
AUC (0-100 h) [2, 5]: 25900 ng·h/mL and 20900 ng·h/mL
AUC (0-Inf.) [2, 5]: 36400 ng·h/mL and 26900 ng·h/mL
F (oral bioavailability) [2, 5]: 91.4% and 66.7%
T1/2 [2, 5]: 48.2 h
Cmax [2, 6]: 1110 ng/mL and 733 ng/mL
F (oral bioavailability) [2, 6]: 91% and 67%
T1/2 [2, 6]: 64 h and 44 h
Tmax [2, 6]: 1 h and 4 h
F ([3]; rats NJ97, NJ98, head prints (water, p.o), title: single oral in SSV, calculated with AUC 0-48 h, listed as Formula I (HCl salt)): 42.4% and 53.7%
AUC (0-48 h) [3, 7]: 12000 ng·h/mL and 15200 ng·h/mL
AUC (0-Inf. h) [3, 7]: 12800 ng·h/mL and 15800 ng·h/mL
Cmax [3, 7]: 616 ng/mL and 796 ng/mL
T1/2 [3, 7]: 11.6 h and 10.2 h
Tmax [3, 7]: 2.2 h and 4.0 h
AUC (0-48 h) [3, 8]: 26200 ng·h/mL and 20100 ng·h/mL
AUC (0-Inf. h) [3, 8]: 37900 ng·h/mL and 34000 ng·h/mL
Cmax [3, 8]: 933 ng/mL and 1060 ng/mL
F [3, 8]: 98.6% and 75.7%
T1/2 [3, 8]: 26.5 h and 27.1 h
Tmax [3, 8]: 6.3 h and 4.0 h
AUC (0-48 h) [3, 9]: 31700 ng·h/mL and 21400 ng·h/mL
AUC (0-Inf. h), **calculated with AUC (0-72 h) [3, 9]: 49300** ng · h/mL and 32300** ng · h/mL
CL* (calculated with AUC (0-24 h)) [3, 9]: 4.96 mL/min/kg and 7.35 mL/min/kg
T1/2, ***without 72 h concentration [3, 9]: 25.5*** h and 18.2*** h
Vz* (calculated with AUC (0-24 h)) [3, 9]: 11.0 L/kg and 11.5 L/kg
plasma concentrations at 72 h relative to those at 48 h ([3]; rats, i.v.): 4 times
mean apparent terminal half-life ([3]; rats, i.v., 9.4 mg/kg, n=4): 19.8 h
increase of plasma levels at 72 h post-dose over 48 h ([3]; rats, oral solution in water): very small
mean (±SD) apparent terminal half-life ([3]; rats, oral solution in water, 4 rats): 13.6 h
increase of plasma levels at 72 h post-dose over 48 h ([3]; rats, oral suspension in SSV): approximately 5 fold
